Measured values as given in ChEMBL document CHEMBL1201862, “PubChem BioAssay data set” (2004).
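Compound exposure: 48 hours, 5 concentrations, 96-well plates. GI50 = concentration required for 50% inhibition of growth.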 The source made the active and inactive calls. Cut-off read from the data, not from the text of the source: active = GI50 up to about 1.1 µM and inactive = higher.

Tests used:
Test in all cases: NCI anticancer screen, dose series, 48 h
M19-MEL = test system: M19-MEL
DMS-114 = test system: DMS-114
RXF 631 = test system: RXF 631
LXFL 529 = test system: LXFL 529
KM-20L2 = test system: KM-20L2
HOP-18 = test system: HOP-18
SNB-78 = test system: SNB-78
DMS-273 = test system: DMS-273
XF498 = test system: XF498

S=c1c2ccccc2c(=S)n2n1CC=CC2
GI50 (M19-MEL): > 100 µM (inactive) | GI50 (DMS-114): > 100 µM (inactive) | GI50 (RXF 631): > 100 µM (inactive) | GI50 (LXFL 529): > 100 µM (inactive) | GI50 (KM-20L2): > 100 µM (inactive) | GI50 (HOP-18): > 100 µM (inactive) | GI50 (SNB-78): > 100 µM (inactive) | GI50 (DMS-273): > 100 µM (inactive)

C/C=C1\CN2CCc3c([nH]c4ccccc34)C2CC1C(=O)OC (stereo not given)
GI50 (XF498): > 322 µM (inactive) | GI50 (LXFL 529): > 322 µM (inactive) | GI50 (KM-20L2): > 322 µM (inactive) | GI50 (DMS-273): > 322 µM (inactive)

CC1(C)OC(C[C@]2(C#N)C[C@H](CCl)OC(C)(C)O2)C[C@@H](C[C@]2(C#N)C[C@H](CCl)OC(C)(C)O2)O1 (stereo not given in full)
GI50 (M19-MEL): > 100 µM (inactive) | GI50 (XF498): > 100 µM (inactive) | GI50 (LXFL 529): > 100 µM (inactive) | GI50 (KM-20L2): > 100 µM (inactive) | GI50 (HOP-18): > 100 µM (inactive) | GI50 (SNB-78): > 100 µM (inactive) | GI50 (DMS-273): > 100 µM (inactive)

CC(NS(=O)(=O)c1ccc(Cl)cc1)C(=O)O (stereo not given)
GI50 (M19-MEL): > 100 µM (inactive) | GI50 (XF498): 66.7 µM (inactive) | GI50 (LXFL 529): > 100 µM (inactive) | GI50 (KM-20L2): > 100 µM (inactive) | GI50 (HOP-18): > 100 µM (inactive) | GI50 (DMS-273): > 100 µM (inactive)

Cc1cc(=O)oc2c1cc(OCC(=O)OCCN1CCCCC1)c1occ(C)c12
GI50 (M19-MEL): > 100 µM (inactive) | GI50 (XF498): > 100 µM (inactive) | GI50 (DMS-114): > 100 µM (inactive) | GI50 (LXFL 529): > 100 µM (inactive) | GI50 (KM-20L2): > 100 µM (inactive) | GI50 (HOP-18): > 100 µM (inactive) | GI50 (SNB-78): > 100 µM (inactive) | GI50 (DMS-273): > 100 µM (inactive)

C=C1C(=O)C23CC1CCC2C12CO[C@@]3(O)[C@@H](O)C1C(C)(C)C=CC2=O (stereo not given in full)
GI50 (M19-MEL): 0.824 µM (active) | GI50 (XF498): 0.791 µM (active) | GI50 (RXF 631): 1.03 µM (active) | GI50 (KM-20L2): 1.44 µM (inactive) | GI50 (HOP-18): 1.19 µM (inactive) | GI50 (SNB-78): 0.718 µM (active) | GI50 (DMS-273): 0.568 µM (active)

COC(=O)CC[C@@H](NC(=O)C(C)NC(=O)COC1C(O)C(COC(=O)CCCCCCCCCCNC(=O)c2ccc([N+](=O)[O-])c3[nH]c4cc(Br)ccc4c(=O)c23)OC(OCc2ccccc2)C1NC(C)=O)C(N)=O (stereo not given in full)
GI50 (M19-MEL): 50.8 µM (inactive) | GI50 (XF498): > 100 µM (inactive) | GI50 (DMS-114): 35.6 µM (inactive) | GI50 (LXFL 529): 26.2 µM (inactive) | GI50 (KM-20L2): > 100 µM (inactive) | GI50 (HOP-18): 35.7 µM (inactive) | GI50 (SNB-78): 71.8 µM (inactive) | GI50 (DMS-273): > 100 µM (inactive)

CCC1(OC(C)=O)C(=O)OCc2c1cc1n(c2=O)Cc2cc3ccccc3nc2-1 (stereo not given)
GI50 (M19-MEL): 2.48 µM (inactive) | GI50 (XF498): 17.9 µM (inactive) | GI50 (DMS-114): 0.611 µM (active) | GI50 (RXF 631): 3.85 µM (inactive) | GI50 (LXFL 529): 15 µM (inactive) | GI50 (KM-20L2): 7.01 µM (inactive) | GI50 (HOP-18): > 34.8 µM (inactive) | GI50 (SNB-78): > 40.9 µM (inactive) | GI50 (DMS-273): 0.388 µM (active)

CCOC(=O)C(C)(C)Oc1ccc2c(C)c(-c3ccc(Cl)cc3)c(=O)oc2c1
GI50 (M19-MEL): 54.2 µM (inactive) | GI50 (XF498): 20.3 µM (inactive) | GI50 (DMS-114): 20.4 µM (inactive) | GI50 (RXF 631): 32.6 µM (inactive) | GI50 (LXFL 529): 34.1 µM (inactive) | GI50 (KM-20L2): 33.2 µM (inactive) | GI50 (DMS-273): 37.6 µM (inactive)

C=C1CC2C(=O)N(c3ccccc3)C(=O)C2CC1n1[nH]c(=O)n(Cc2ccccc2)c1=O (stereo not given)
GI50 (M19-MEL): > 100 µM (inactive) | GI50 (XF498): > 100 µM (inactive) | GI50 (LXFL 529): > 100 µM (inactive) | GI50 (KM-20L2): > 100 µM (inactive) | GI50 (HOP-18): > 100 µM (inactive) | GI50 (SNB-78): > 100 µM (inactive) | GI50 (DMS-273): > 100 µM (inactive)

Cc1cc(C)c2c(c1C)CN1CN2Cc2c(C)c(C)cc(C)c21
GI50 (M19-MEL): 30.5 µM (inactive) | GI50 (DMS-114): 2.92 µM (inactive) | GI50 (LXFL 529): 8.15 µM (inactive) | GI50 (HOP-18): 83.6 µM (inactive) | GI50 (SNB-78): 42.6 µM (inactive) | GI50 (DMS-273): 6.56 µM (inactive)

CSc1ccc2c(cc1=O)[C@@H](NC(=O)c1cc(O)c(O)c(O)c1)CCc1cc(O)c(O)c(O)c1-2
GI50 (M19-MEL): 14.6 µM (inactive) | GI50 (XF498): 15.4 µM (inactive) | GI50 (RXF 631): 15.5 µM (inactive) | GI50 (LXFL 529): 18.9 µM (inactive) | GI50 (KM-20L2): 68.7 µM (inactive) | GI50 (SNB-78): 31 µM (inactive) | GI50 (DMS-273): 20.5 µM (inactive)

O=c1/c(=C/c2ccco2)sc2nc3ccccc3n12
GI50 (M19-MEL): > 10 µM (inactive) | GI50 (XF498): > 10 µM (inactive) | GI50 (DMS-114): > 10 µM (inactive) | GI50 (RXF 631): > 10 µM (inactive) | GI50 (LXFL 529): > 10 µM (inactive) | GI50 (KM-20L2): > 10 µM (inactive) | GI50 (HOP-18): > 100 µM (inactive) | GI50 (SNB-78): > 10 µM (inactive) | GI50 (DMS-273): 86.5 µM (inactive)

O=C1OCCC1C(O)C1c2ccccc2-c2ccccc21 (stereo not given)
GI50 (M19-MEL): > 100 µM (inactive) | GI50 (XF498): 17.8 µM (inactive) | GI50 (DMS-114): > 100 µM (inactive) | GI50 (LXFL 529): > 100 µM (inactive) | GI50 (SNB-78): > 100 µM (inactive)

CCCCCCc1cc2c(C)c(C)c(=O)oc2cc1OCCCOc1cc2oc(=O)c(C)c(C)c2cc1CCCCCC
GI50 (M19-MEL): > 100 µM (inactive) | GI50 (XF498): > 100 µM (inactive) | GI50 (DMS-114): > 100 µM (inactive) | GI50 (LXFL 529): > 100 µM (inactive) | GI50 (KM-20L2): > 100 µM (inactive) | GI50 (HOP-18): > 100 µM (inactive) | GI50 (SNB-78): > 100 µM (inactive) | GI50 (DMS-273): > 100 µM (inactive)

NC(=O)COc1ccc(Br)cc1Br
GI50 (M19-MEL): > 100 µM (inactive) | GI50 (DMS-114): > 100 µM (inactive) | GI50 (LXFL 529): > 100 µM (inactive) | GI50 (KM-20L2): > 100 µM (inactive) | GI50 (HOP-18): > 100 µM (inactive) | GI50 (SNB-78): > 100 µM (inactive) | GI50 (DMS-273): > 100 µM (inactive)

Cc1[nH]c(=O)[nH]c(=O)c1N(CCF)CCCl [FLUORODOPAN]
GI50 (DMS-114): 193 µM (inactive) | GI50 (KM-20L2): 359 µM (inactive) | GI50 (SNB-78): 322 µM (inactive)

Cc1ccc(S(=O)(=O)N/N=C(\c2nc3ccc([N+](=O)[O-])cc3nc2O)C(O)c2ccccc2Cl)cc1 (stereo not given)
GI50 (M19-MEL): 86.9 µM (inactive) | GI50 (DMS-114): 16.7 µM (inactive) | GI50 (RXF 631): > 100 µM (inactive) | GI50 (LXFL 529): 35.8 µM (inactive) | GI50 (KM-20L2): > 100 µM (inactive) | GI50 (HOP-18): > 100 µM (inactive) | GI50 (SNB-78): > 100 µM (inactive) | GI50 (DMS-273): > 100 µM (inactive)

CC#CC1/C(=C\C(=O)OC)CCCC1O (stereo not given)
GI50 (M19-MEL): > 100 µM (inactive) | GI50 (XF498): > 100 µM (inactive) | GI50 (DMS-114): > 100 µM (inactive) | GI50 (SNB-78): > 100 µM (inactive) | GI50 (DMS-273): > 100 µM (inactive)

COC(=O)C(C(=O)C(=O)Nc1ccccc1C)c1nc2ccc([N+](=O)[O-])cc2nc1O (stereo not given)
GI50 (M19-MEL): > 100 µM (inactive) | GI50 (XF498): > 100 µM (inactive) | GI50 (DMS-114): > 100 µM (inactive) | GI50 (LXFL 529): > 100 µM (inactive) | GI50 (KM-20L2): > 100 µM (inactive) | GI50 (HOP-18): > 100 µM (inactive) | GI50 (SNB-78): > 100 µM (inactive) | GI50 (DMS-273): > 100 µM (inactive)

CC(=O)OC[C@@H](COC(=O)/C=C/c1ccc(O)cc1)OC1OC(CO)C(O)C(O)C1O (stereo not given in full)
GI50 (M19-MEL): > 100 µM (inactive) | GI50 (XF498): > 100 µM (inactive) | GI50 (RXF 631): > 100 µM (inactive) | GI50 (LXFL 529): > 100 µM (inactive) | GI50 (KM-20L2): > 100 µM (inactive) | GI50 (HOP-18): > 100 µM (inactive) | GI50 (SNB-78): > 100 µM (inactive)

O=S(=O)(N/N=C\c1c2ccccc2[n+]([O-])c2ccccc12)c1ccc(Cl)cc1
GI50 (M19-MEL): > 100 µM (inactive) | GI50 (DMS-114): > 100 µM (inactive) | GI50 (RXF 631): > 100 µM (inactive) | GI50 (LXFL 529): > 100 µM (inactive) | GI50 (KM-20L2): > 100 µM (inactive) | GI50 (HOP-18): 32.4 µM (inactive) | GI50 (SNB-78): > 100 µM (inactive) | GI50 (DMS-273): 93.3 µM (inactive)

O=C(NC(=O)c1ccccc1[N+](=O)[O-])Nc1ccc(Oc2ncc(Cl)cn2)c([N+](=O)[O-])c1
GI50 (M19-MEL): 0.135 µM (active) | GI50 (XF498): 0.818 µM (active) | GI50 (DMS-114): 0.0865 µM (active) | GI50 (RXF 631): 0.286 µM (active) | GI50 (LXFL 529): 0.217 µM (active) | GI50 (KM-20L2): 0.121 µM (active) | GI50 (HOP-18): > 100 µM (inactive) | GI50 (SNB-78): 0.252 µM (active) | GI50 (DMS-273): 0.0738 µM (active)

O=c1[nH]c2ccccc2nc1CBr
GI50 (M19-MEL): 10.2 µM (inactive) | GI50 (XF498): 1.9 µM (inactive) | GI50 (LXFL 529): 1.12 µM (active) | GI50 (KM-20L2): 14.1 µM (inactive) | GI50 (HOP-18): 6.93 µM (inactive) | GI50 (SNB-78): 16.1 µM (inactive) | GI50 (DMS-273): 1.61 µM (inactive)

Cc1ccc2nc3c(C(=O)NCCN(C)C)cccc3nc2c1
GI50 (M19-MEL): 2.44 µM (inactive) | GI50 (DMS-114): 2.74 µM (inactive) | GI50 (LXFL 529): 7.38 µM (inactive) | GI50 (KM-20L2): 3.53 µM (inactive) | GI50 (HOP-18): > 27.1 µM (inactive) | GI50 (SNB-78): 7.31 µM (inactive) | GI50 (DMS-273): 2.84 µM (inactive)
